# Values quoted from earlier work as cited in US20230149481A1, “COMBINATION THERAPY FOR INFLAMMATORY BOWEL DISEASE” (Servatus Ltd, priority 2020, published 2023).
# Test system: DSS-induced colitis
# Details: previous tests in the same DSS-induced colitis model, compared with the Group 5 treatment of Example 1
row,SMILES,in-life disease score
1,C[C@]12C=CC(=O)C=C1CC[C@@H]1[C@@H]2[C@@H](O)C[C@@]2(C)[C@H]1CC[C@]2(O)C(=O)CO [prednisolone],None of these drugs statistically improved the in-life disease score to the extent observed
2,O=C(O)c1cc(/N=N/c2ccc(S(=O)(=O)Nc3ccccn3)cc2)ccc1O [sulfasalazine],None of these drugs statistically improved the in-life disease score to the extent observed
